Experimental data from patent publication US20170000784A1, “Autophagy Inhibitors” (priority 2013, published 2017).
Values after ≈ are worked out from the molar mass of the structure shown.

How the values were obtained:
[1] = tested on: PLX-4032 resistant melanoma cell lines UACC1093 and UACC647; assay: Combination interaction tumor cell viability (ATP luminescence, 72 hours); type: cell-based
Protocol: (§1) Tumor cell lines (H292, HCT116, A375, HCC1569, A498, N87, UACC1093, and UACC647) were cultured in RPMI 1640 supplemented with 5% fetal bovine serum and housed in a 5% CO2 Incubator at 37° C.
(§2) For combination interaction experiments, cells were plated on a 96 well microplate and allowed 24 hours to adhere. Drugs were administered to the drug plate by the following: compound stock solutions (20 mM) or combination agent stock solutions (20 mM) were added to a drug plate where a 1:10 dilution was performed. Following the dilutions, 2 μl of each VT-062 and standard agent was transferred to the corresponding wells in the cell-containing 96-well plate with 196 μl of growth media. The compound and combination agent was concurrently tested over a range of 0.1 pM-100 μM for 72 hours. Following 72 hours of continuous exposure cell viability was determined by measuring the ATP activity using a commercially available cell viability assay kit. Luminescence intensity was used to relative drug activity compared to control wells and used to graphically determine the IC50 of combination.

[2] = tested on: Tumor cell lines (H292, HCT116, A375, HCC1569, A498, N87, UACC1093, and UACC647); assay: Single agent tumor cell viability (ATP luminescence, 72 hours); type: cell-based; settings: cell lines tested; 72 hours exposure; FIGS. 1A, 1B
Protocol: as §1
as §2, with “single agent IC50 determination,” for “combination interaction experiments,”, “(10” for “(20 mM) or combination agent stock solutions (20”, “test compound” for “each VT-062 and standard agent”, “198” for “196”, “compounds were” for “compound and combination agent was concurrently”, “IC50.” for “IC50 of combination.”

[3] = tested on: A375 Human melanoma tumor cells; assay: Human tumor xenograft study; type: in vivo; settings: A375 xenograft in female mice; orally, daily for 21 days; after 25 days
Protocol: Female mice were inoculated subcutaneously in the right flank with 0.1 ml of a 50% RPMI/50% Matrigel™ (BD Biosciences, Bedford, Mass.) mixture containing a suspension of A375 Human melanoma tumor cells (approximately 5×10^6 cells/mouse).
When tumor reached approximately 130 mg, mice were randomized into treatment groups. Body weights were recorded when the mice were randomized and were taken twice per week (on Study Days 3 and 7 for each cycle) thereafter in conjunction with tumor measurements. Treatment began on the day of randomization. Example 10 was delivered orally in a vehicle consisting of 5% DMA, 10% propylene glycol, 20% PEG 400, and 65% sterile water. Example 10 was administered daily for 21 days.

L6 cells = assay: In vitro cytotoxicity (LD50), Alamar Blue; type: cell-based; settings: Rattus norvegicus, L6, read-out: L6 IC50
Protocol: L6 cells were seeded at 4×10^4 cells per well in a 96-well microtiter plate with each well containing 100 μL of RPMI 1640 medium, supplemented with 1% L-glutamine (200 mM), and 10% fetal bovine serum. Serial drug dilutions of Example 7 and Example 27 with seven 3-fold dilution steps, covering a range from 90 to 0.12 μg/mL, were prepared. After 72 h of incubation, the plates were inspected under an inverted microscope to ensure growth of the controls and sterile conditions. Alamar Blue (10 μL, 12.5 mg of resazurin dissolved in 100 mL of double-distilled water) was then added to each well, and the plates were incubated for another 2 hours. Plates were read with a microplate fluorometer using an excitation wavelength of 536 nm and an emission wavelength of 588 nm. Data were analyzed using microplate reader software. Podophyllotoxin was used as a standard (L6 IC50=0.04 μg/mL).
Next, the inventors wanted to determine if there is a therapeutic window for Example 7 and Example 27 in the treatment of P. falciparum. A therapeutic window for P. falciparum treatment is defined as a 10-fold differential between the in vitro cytotoxicity (LD50) within a mammalian cell line and the antimalarial IC50 (LD50/IC50) as defined by the MMV. Using the rat skeletal muscle L6 mammalian cell line, dose-response curves for Example 7 and Example 27 were performed and the LD50 determined.

[4] = tested on: UACC-1940 melanoma cell line; assay: Cell viability (IC50) screen, CellTiter Glo, UACC-1940; type: cell-based; settings: Homo sapiens; UACC-1940 cell viability, CellTiter Glo; read-out: IC50
Protocol: (§3) U2OS cells were seeded at 500 cells per well in 5A McCoy's with 10% FBS in 96-well clear bottom, black-walled tissue culture plates. All melanoma cell lines (A375, UACC-91, UACC-257, UACC-502, UACC-903, UACC-1308, UACC-1940, UACC-2534, and UACC-3291) were seeded at 5,000 cells per well in RPMI 1640 with 10% FBS in 96-well clear bottom, black-walled tissue culture plates. After 24 hour incubation, cells were treated with VATG compounds in triplicate with a 10-point half log dose response from […] for 24 and 48 hours. Medium was removed and 2× CellTiter Glo (Promega, G7571) reagent mixed 1:1 with Opti-MEM (Invitrogen, 31985062) was added at 100 μL per well and incubated at room temperature for 15 minutes while rocking. 75 μL per well was moved to a white-walled 96-well plate and luminescence quantified using the 96 LUM program on an EnVision plate reader (PerkinElmer) and exported for analysis. All triplicate data points were averaged and luminescent readings for each treatment were normalized to vehicle control for change in viability. Dose response curves were input into SigmaPlot for IC50 calculations (Systat Software Inc).

[5] = tested on: UACC-257 melanoma cell line; assay: Cell viability (IC50) screen, CellTiter Glo, UACC-257; type: cell-based; settings: Homo sapiens; UACC-257 cell viability, CellTiter Glo; read-out: IC50
Protocol: as §3

A375 melanoma cell line = assay: Cell viability (IC50) screen, CellTiter Glo, A375; type: cell-based; settings: Homo sapiens, A-375; A375 cell viability, CellTiter Glo, 48 hours; read-out: IC50
Protocol: as §3

[6] = tested on: UACC-1308 melanoma cell line; assay: Cell viability (IC50) screen, CellTiter Glo, UACC-1308; type: cell-based; settings: Homo sapiens; UACC-1308 cell viability, CellTiter Glo; read-out: IC50
Protocol: as §3

A375 cells = type: cell-based, human; settings: A375 soft agar
Description: After three weeks of treatment, cells were fixed and stained in 1% paraformaldehyde in 1×PBS containing 0.005% crystal violet overnight. Cells were destained with multiple washes of 1×PBS to remove background staining. Plates were scanned and images quantified using Nikon NIS Elements software. To quantify, each image was sharpened and an ROI of equal size drawn around each well. Intensity thresholds were set to include all pixels equal to or greater than the intensity of the mean background fluorescence. Objects within the threshold of each ROI were quantified using an automated object count function and exported for analysis. Object number was quantified to denote total colony formation. […] Additivity was established when the expected viability determined by the Bliss independence model was equal to the actual viability. This model was chosen since the effects of both compounds are mutually non-exclusive and follow first order Michaelis-Menten kinetics.
To determine if the effects of each combination were more than, less than, or equal to additive, predictions for additivity were made using the Bliss Independence (Table 7), as disclosed in Yan H, Zhang B, Li S, Zhao Q. A formal model for analyzing drug combination effects and its application in TNF-alpha-induced NFkappaB pathway. BMC Syst. […] Drug combination studies and their synergy quantification using the Chou-Talalay method.

[7] = tested on: UACC-3291 melanoma cell line; assay: Cell viability (IC50) screen, CellTiter Glo, UACC-3291; type: cell-based; settings: Homo sapiens; UACC-3291 cell viability, CellTiter Glo; read-out: IC50
Protocol: as §3

[8] = tested on: phospho-ERK1/2 and LC3-II in A375 cells; assay: Western blot of A375 cells treated with PLX-4032 with and without autophagy inhibitors; type: cell-based, human
Protocol: For Western blotting, U2OS cells were seeded in 10 cm plates in 5A McCoy's with 10% FBS at 1×10^6 cells per plate. All melanoma lines were seeded in 10 cm plates in RPMI 1640 with 10% FBS at 1×10^6 cells per plate. After 24 hours, cells were treated with CQ, QN, Example 27, or Example 7 in a dose response of 0.3 μM, 1 μM, 3 μM, 10 μM, and 30 μM for three hours. A375 were treated with PLX-4032 (Selleck Chemicals, S1267) at 10 nM, 100 nM, and 1 μM for three hours with and without CQ, QN, Example 7, and Example 27 at 3 μM and 30 μM. After treatment, cells were lysed [10 mM KPO4, 1 mM EDTA, 10 mM MgCl2, 5 mM EGTA, 50 mM bis-glycerophosphate, 0.5% NP40, 0.1% Brij35, 0.1% sodium deoxycholate, 1 mM NaVO4, 5 mM NaF, 2 mM DTT, and complete protease inhibitors (Sigma, P8340-5 mL)] and 50 μg of protein was resolved by SDS-PAGE. Proteins were transferred to PVDF membranes and probed with primary antibodies [LC3 (Sigma, L7543-200UL), anti-α-tubulin (Sigma, T6199), cathepsin B (Santa Cruz, sc-13985)] for 16 hours at 4° C. followed by a secondary antibody [HRP-linked rabbit or mouse IgG (GE Healthcare, NA934 or NA931) or Odyssey IRDye 680CW Goat anti-rabbit IgG (LI-COR, 926-32221) or IRDye 800CW Goat anti-mouse IgG (LI-COR, 926-32210)] for 1 hour at room temperature. Proteins were detected with enhanced chemiluminescence or using the Odyssey machine and quantified (FIGS. 12, 15, 16, 7 and 11).
Since the melanoma cell lines are capable of undergoing autophagy and sensitive to autophagy inhibition, the inventors questioned whether autophagy inhibitors could improve the efficacy of, or sensitize melanoma cells against cytotoxic and chemotherapeutic drugs for advanced metastatic melanoma. In one example, PLX-4032 drug “vemurafenib” (marketed as ZELBORAF®) is a B-Raf enzyme inhibitor developed by Plexxikon and Genentech for the treatment of late-stage melanoma. The name “vemurafenib” comes from V600E mutated BRAF inhibition. PLX-4032, selectively targets the V600E mutant BRAF and it is unknown how this drug may affect autophagic flux. To determine the effects of the drug on autophagic flux, the present inventors performed experiments to determine whether PLX-4032 induces autophagy, as has been observed with other targeted agents. In some embodiments, the accumulation of LC3-II in response to lysosome inhibition was measured by quantitative Western blotting, as described above. A375 cells were treated with PLX-4032 (10 nM, 100 nM, and 1 μM) for three hours in the presence or absence of CQ.

[9] = tested on: UACC-2534 melanoma cell line; assay: Cell viability (IC50) screen, CellTiter Glo, UACC-2534; type: cell-based; settings: Homo sapiens; UACC-2534 cell viability, CellTiter Glo; read-out: IC50
Protocol: as §3

[10] = tested on: UACC-903 melanoma cell line; assay: Cell viability (IC50) screen, CellTiter Glo, UACC-903; type: cell-based; settings: Homo sapiens; UACC-903 cell viability, CellTiter Glo; read-out: IC50
Protocol: as §3

[11] = tested on: metastatic melanoma with BRAF V600E mutation; settings: metastatic melanoma patients with the mutation; in one study; cited from earlier work
[12] = tested on: UACC-91 melanoma cell line; assay: Cell viability (IC50) screen, CellTiter Glo, UACC-91; type: cell-based; settings: Homo sapiens; UACC-91 cell viability, CellTiter Glo; read-out: IC50
Protocol: as §3

[13] = tested on: UACC-502 melanoma cell line; assay: Cell viability (IC50) screen, CellTiter Glo, UACC-502; type: cell-based; settings: Homo sapiens; UACC-502 cell viability, CellTiter Glo; read-out: IC50
Protocol: as §3

In the case of `COc1ccc2nc3cc(Cl)ccc3c(NCCCCN(C)CC3CC3)c2c1` [Example 10, N^1-(6-Chloro-2-methoxyacridin-9-yl)-N^4-(cyclopropylmethyl)-N^4-methylbutane-1,4-diamine], the “increase in tumor growth inhibition in combination than Example 10 alone” value ([1]; in combination with PLX-4032, FIGS. 4A, 4C) is reported as 2.6-3.25%, the “increase in tumor growth inhibition in combination than Example 10 alone” value ([1]; in combination with Temozolomide, FIGS. 4B, 4D) is reported as 7-30% and the “tumor cell growth inhibition” value [2] is reported as “more than 75%”. The tumor growth inhibition [3] was “greater than 50%”.
Work on `COc1cc([C@@H]2c3cc4c(cc3[C@H](O)[C@H]3COC(=O)[C@H]23)OCO4)cc(OC)c1OC` [Podophyllotoxin] yielded an IC50 (L6 cells) of 0.04 µg/mL (≈ 0.0965 µM).
In the case of `CCCS(=O)(=O)Nc1ccc(F)c(C(=O)c2c[nH]c3ncc(-c4ccc(Cl)cc4)cc23)c1F` [PLX-4032, N-[3-[5-(4-chlorophenyl)-1H-pyrrolo[2,3-b]pyridine-3-carbonyl]-2,4-difluorophenyl]propane-1-sulfonamide, reference compound], the IC50 [4] is reported as 3.3 µM, the IC50 [5] is reported as 4 µM and the IC50 (A375 melanoma cell line) is reported as 1000 nM. The IC50 [6] was 600 nM, the “Relative Growth Inhibition Compound B” value (A375 cells; single compound at IC10) was 0.19 and the IC10 concentration (A375 cells; treated every other day for three weeks, single agent) was 1.3 nM. The IC50 [7] was 1500 nM, the “phosphorylation of ERK1/2 (oncogenic BRAF signaling)” value ([8]; 10 nM, 100 nM, 1 μM for three hours) was “reduced phosphorylation” and the “autophagy / basal autophagic flux (LC3-II)” value ([8]; three hours, in the presence or absence of lysosome inhibitors) was “not significantly altered”. For the same compound, the IC50 [9] was 19.3 µM, the IC50 [10] was 69 µM and the response rate [11] was 70%. For the same compound, the IC50 [12] was 600 nM and the IC50 [13] was 4.2 µM.
